From patent publication US20240156825A1, “USE OF SELECTIVE VEGFR2 AND FGFR1 INHIBITORS” (Fountain Therapeutics Inc., priority 2022, published 2024)
pIC50: −log10 of the molar value. Where two headings read alike, the source gives them in different places.

Tests used:
Zmpste24−/− mice = experiment: Mouse model of progeria: body fat (Echo MRI), lean muscle, body weight, intrascapular brown fat; type: in vivo; settings: oral gavage QD5 for 56 days; for Body fat (Echo MRI) vs vehicle / Intrascapular brown fat mass (percent of body weight) vs vehicle: Brivanib alaninate 50, SU5402 25, Cediranib maleate 5, Regorafenib 10, infigratinib 5 mg/kg; for Body weight vs vehicle / Lean muscle vs vehicle: SU5402 25, Cediranib maleate 5, Regorafenib 10, infigratinib 5 mg/kg
Method: Zmpste24 mice, a progeria model mouse line, were dosed with either 50 mg/kg Brivanib alaninate for 56 days, 5 days on, 2 days off (QD5), or vehicle alone. The dose was administered via oral gavage as a suspension of 18% (w/v) PEG400 2% (w/v) Tween-80 in water . The vehicle alone was 18% (w/v) PEG400 2% (w/v) Tween-80 in water.
The body fat of the mice was measured by an Echo MRI throughout the treatment.
Samples of intrascapular brown adipose tissue from 15 week old mice treated with Brivanib Alaninate or vehicle for 56 days underwent Hematoxylin and Eosin (H&E) staining.
Zmpste24−/− mice, a progeria model mouse line, were dosed with either 25 mg/kg SU5402 for 56 days, 5 days on, 2 days off (QD5) or vehicle alone. The dose was administered via oral gavage as a suspension of 5% (w/v) DMSO 9% (w/v) PEG400 1% (w/v) Tween-80 in saline. The vehicle alone was 5% (w/v) DMSO 9% (w/v) PEG400 1% (w/v) Tween-80 in saline.
The body fat of the mice was measured by an Echo […]. Lean muscle and body weight were also measured.
The dose was administered via oral gavage as a suspension of 18% (w/v) PEG400 2% (w/v) Tween-80 in water . The vehicle alone was 18% (w/v) PEG400 2% (w/v) Tween-80 in water.
The body fat of the mice was measured by an Echo MRI. […] There was also no alteration of intrascapular brown adipose tissue mass (FIG. 5D).
The dose was administered via oral gavage as a suspension of 18% (w/v) PEG400 2% (w/v) Tween-80 in water. The vehicle alone was 18% (w/v) PEG400 2% (w/v) Tween-80 in water.
The body fat of the mice was measured by an Echo MM. […] There was also no alteration of intrascapular brown adipose tissue mass (FIG. 6D).
The body fat of the mice was measure by an Echo MRI. […] There was also no alteration of intrascapular brown adipose tissue mass (FIG. 7D). […]

VEGFR2 and FGFR1 = experiment: Selection of compounds that selectively inhibit both VEGFR2 and FGFR1 (average relative IC50); type: biochemical
VEGFR2 [1] = target: T1, VEGFR2 (Homo sapiens, UniProt P35968); settings: relative IC50: reported IC50 toward VEGFR2 divided by next lowest reported IC50 to any gene target
T1 sequence (P35968 20-1356, species assumed): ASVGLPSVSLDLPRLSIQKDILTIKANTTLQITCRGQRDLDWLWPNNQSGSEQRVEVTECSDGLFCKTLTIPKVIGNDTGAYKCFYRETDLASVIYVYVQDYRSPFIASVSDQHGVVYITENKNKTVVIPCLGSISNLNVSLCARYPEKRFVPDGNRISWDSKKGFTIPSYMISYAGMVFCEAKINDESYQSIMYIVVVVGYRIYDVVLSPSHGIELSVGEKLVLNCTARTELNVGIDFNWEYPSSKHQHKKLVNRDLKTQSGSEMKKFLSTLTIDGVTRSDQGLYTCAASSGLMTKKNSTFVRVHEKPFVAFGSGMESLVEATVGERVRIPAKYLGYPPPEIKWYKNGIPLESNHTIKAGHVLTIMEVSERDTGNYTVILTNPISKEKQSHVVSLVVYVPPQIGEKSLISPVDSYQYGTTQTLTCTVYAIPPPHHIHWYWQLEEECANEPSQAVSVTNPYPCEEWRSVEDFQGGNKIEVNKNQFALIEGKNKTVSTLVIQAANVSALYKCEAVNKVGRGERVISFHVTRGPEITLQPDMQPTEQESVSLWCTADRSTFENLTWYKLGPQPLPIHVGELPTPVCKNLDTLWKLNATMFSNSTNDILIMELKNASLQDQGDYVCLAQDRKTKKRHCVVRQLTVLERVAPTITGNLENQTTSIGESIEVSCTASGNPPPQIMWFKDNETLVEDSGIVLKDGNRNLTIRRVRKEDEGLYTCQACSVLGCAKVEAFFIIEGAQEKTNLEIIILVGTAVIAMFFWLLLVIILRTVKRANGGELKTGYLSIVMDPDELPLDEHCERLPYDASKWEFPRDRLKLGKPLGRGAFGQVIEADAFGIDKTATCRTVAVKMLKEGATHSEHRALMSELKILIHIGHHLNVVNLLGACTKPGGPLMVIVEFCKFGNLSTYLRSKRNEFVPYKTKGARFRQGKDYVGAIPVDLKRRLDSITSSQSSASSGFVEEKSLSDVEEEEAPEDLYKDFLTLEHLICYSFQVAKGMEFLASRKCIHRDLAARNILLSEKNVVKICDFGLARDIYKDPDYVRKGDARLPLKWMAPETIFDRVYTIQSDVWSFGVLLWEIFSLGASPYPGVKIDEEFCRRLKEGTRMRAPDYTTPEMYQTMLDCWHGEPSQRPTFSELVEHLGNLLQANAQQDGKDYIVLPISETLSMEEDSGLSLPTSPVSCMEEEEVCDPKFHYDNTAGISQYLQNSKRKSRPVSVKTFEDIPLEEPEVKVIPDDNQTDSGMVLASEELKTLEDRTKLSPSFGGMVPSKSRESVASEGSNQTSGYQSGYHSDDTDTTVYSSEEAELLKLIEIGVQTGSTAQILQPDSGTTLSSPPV

FGFR1 [2] = target: T2, FGFR1 (Homo sapiens, UniProt P11362)
T2 sequence (P11362 22-822, species assumed): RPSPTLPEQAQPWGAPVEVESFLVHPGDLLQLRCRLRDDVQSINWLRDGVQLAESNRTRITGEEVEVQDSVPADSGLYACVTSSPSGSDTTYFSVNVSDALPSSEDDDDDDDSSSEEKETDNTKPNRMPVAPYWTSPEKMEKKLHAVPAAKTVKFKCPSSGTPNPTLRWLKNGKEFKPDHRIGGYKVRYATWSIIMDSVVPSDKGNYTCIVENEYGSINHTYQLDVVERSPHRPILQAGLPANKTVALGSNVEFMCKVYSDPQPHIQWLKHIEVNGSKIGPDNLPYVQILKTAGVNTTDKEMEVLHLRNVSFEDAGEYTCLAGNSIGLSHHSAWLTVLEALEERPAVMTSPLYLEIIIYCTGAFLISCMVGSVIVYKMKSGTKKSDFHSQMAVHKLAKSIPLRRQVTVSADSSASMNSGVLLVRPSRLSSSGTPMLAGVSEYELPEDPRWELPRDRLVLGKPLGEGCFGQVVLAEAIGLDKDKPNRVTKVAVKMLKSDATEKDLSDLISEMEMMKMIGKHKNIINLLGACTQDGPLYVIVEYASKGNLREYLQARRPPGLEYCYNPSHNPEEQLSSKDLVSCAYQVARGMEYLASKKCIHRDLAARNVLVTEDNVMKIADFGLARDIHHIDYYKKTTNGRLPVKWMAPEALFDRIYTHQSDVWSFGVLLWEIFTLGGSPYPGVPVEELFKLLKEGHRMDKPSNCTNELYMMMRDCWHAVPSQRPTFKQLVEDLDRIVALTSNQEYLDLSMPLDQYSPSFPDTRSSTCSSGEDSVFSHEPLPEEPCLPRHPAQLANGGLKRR

any gene target = settings: cited from earlier work
FGFR1 [3] = target: T2, FGFR1; settings: reported IC50 to FGFR1; read-out: FGFR1 IC50_μM; cited from earlier work
VEGFR2 [4] = target: T1, VEGFR2; settings: cited from earlier work
[5] = lowest reported IC50 to any gene target, read-out: Min IC50_μM
[6] = average of VEGFR2 and FGFR1 relative IC50
[7] = relative IC50: reported IC50 toward FGFR1 divided by next lowest reported IC50 to any gene target
[8] = reported IC50 to VEGFR2, read-out: VEGFR2 IC50_μM
[9] = lowest reported IC50 to any gene target, read-out: min IC50
[10] = next lowest IC50 value to any gene target, read-out: Min IC50_μM
[11] = reported IC50 to VEGFR2, Table 3, selective inhibitors of VEGFR2, read-out: VEGFR2 IC50_μM
[12] = next lowest IC50 value to any gene target, Table 3, read-out: Min IC50_μM

Compound | VEGFR2, rIC50 (VEGFR2 [1]) | pIC50 (FGFR1 [3]) | pIC50 (any gene target; [5]) | avg rIC50 (VEGFR2 and FGFR1; [6]) | FGFR1, rIC50 (FGFR1 [2]; [7]) | pIC50 (any gene target; [9]) | other results
CCN1CCN(c2ccc(Nc3cc(N(C)C(=O)Nc4c(Cl)c(OC)cc(OC)c4Cl)ncn3)cc2)CC1 [Infigratinib] | – | – | – | – | – | – | Body fat (Echo MRI) vs vehicle (Zmpste24−/− mice): did not show an increase; Intrascapular brown fat mass (percent of body weight) vs vehicle (Zmpste24−/− mice): no alteration; Body weight vs vehicle (Zmpste24−/− mice): did not show an increase; Lean muscle vs vehicle (Zmpste24−/− mice): did not show an increase
Cc1c[nH]c(/C=C2\C(=O)Nc3ccccc32)c1CCC(=O)O [compound 5289418, 3-[(3-(2-Carboxyethyl)-4-methylpyrrol-2-YL)methylene]-2-indolinone] | 0.7 | – | – | – | – | – | avg rIC50 (VEGFR2 and FGFR1): 1.1; Body fat (Echo MRI) vs vehicle (Zmpste24−/− mice): increase in body mass starting at 9 weeks of age; Intrascapular brown fat mass (percent of body weight) vs vehicle (Zmpste24−/− mice): made up for more of the body weight percent; Body weight vs vehicle (Zmpste24−/− mice): increase in body weight starting at 12 weeks of age; Lean muscle vs vehicle (Zmpste24−/− mice): increase in lean muscle starting at 15 weeks of age; FGFR1, rIC50 (FGFR1 [2]): 1.5; pIC50 (any gene target; read-out: Min IC50_μM): 7.52; pIC50 (any gene target; read-out: min IC50): 7.52
CC(C)(C)NC(=O)Nc1nc2nc(N)ncc2cc1-c1c(Cl)cccc1Cl [compound 5328112] | – | 6.96 | 6.89 | – | – | – | –
COc1cc2c(Nc3ccc(C#N)cc3F)ncnc2cc1OCCn1ccnn1 [compound 5329034, Anilinoquinazoline deriv. 36, reference compound] | 0.5 | – | – | 5.3 | 10.0 | 6.52 | pIC50 (VEGFR2 [4]; [8]): 6.52; pIC50 (any gene target; [10]): 6.22
CC(C)(C)NC(=O)Nc1nc2nc(N)ncc2cc1-c1ccccc1 [compound 5329111] | – | 5.43 | 5.43 | – | – | – | –
CONC(=O)c1cc(Nc2ncnn3cc(-c4nnc(N(C)C)o4)c(C(C)C)c23)c(F)cc1F [compound 9982235, 5-[6-(5-Dimethylamino-[1,3,4]oxadiazol-2-yl)-5-isopropyl-pyrrolo[2,1-f][1,2,4]triazin-4-ylamino]-2,4-difluoro-N-methoxy-benzamide, reference compound] | 1.0 | – | – | 1.0 | 1.1 | 8.15 | pIC50 (VEGFR2 [4]; [11]): 8.17; pIC50 (any gene target; [12]): 8.17
CONC(=O)c1cc(Nc2ncnn3cc(-c4nnc(CS(C)(=O)=O)o4)c(C(C)C)c23)c(F)cc1F [compound 10436729, 2,4-Difluoro-5-[5-isopropyl-6-(5-methanesulfonylmethyl-[1,3,4]oxadiazol-2-yl)-pyrrolo[2,1-f][1,2,4]triazin-4-ylamino]-N-methoxy-benzamide, reference compound] | 1.0 | – | – | 1.6 | 2.2 | 8.70 | pIC50 (VEGFR2 [4]; [11]): 8.68; pIC50 (any gene target; [12]): 8.68
Cc1cc(C)c(C)c(-c2cc3cnc(NCCCN4CCN(C)CC4)nc3nc2NC(=O)NC(C)(C)C)c1C [compound 10602350] | – | 6.85 | 6.85 | – | – | – | –
CONC(=O)c1cc(Nc2ncnn3cc(-c4nnc(CC(C)C)o4)c(C(C)C)c23)c(F)cc1F [compound 11352215, 2,4-Difluoro-5-[6-(5-isobutyl-[1,3,4]oxadiazol-2-yl)-5-isopropyl-pyrrolo[2,1-f][1,2,4]triazin-4-ylamino]-N-methoxy-benzamide, reference compound] | 1.0 | – | – | 2.1 | 3.1 | 8.70 | pIC50 (VEGFR2 [4]; read-out: VEGFR2 IC50_μM, reported IC50 to VEGFR2, Table 3, selective inhibitors of VEGFR2): 8.68; pIC50 (any gene target; [12]): 8.68
CCc1nnc(-c2cn3ncnc(Nc4cc(C(=O)NOC)c(F)cc4F)c3c2C(C)C)o1 [compound 11374515, 5-[6-(5-Ethyl-[1,3,4]oxadiazol-2-yl)-5-isopropyl-pyrrolo[2,1-f][1,2,4]triazin-4-ylamino]-2,4-difluoro-N-methoxy-benzamide, reference compound] | 1.0 | – | – | 1.8 | 2.6 | 8.70 | pIC50 (VEGFR2 [4]; [11]): 8.74; pIC50 (any gene target; [12]): 8.74
CONC(=O)c1cc(Nc2ncnn3cc(-c4nnc(CC(F)(F)F)o4)c(C(C)C)c23)c(F)cc1F [compound 11455031, 2,4-Difluoro-5-{5-isopropyl-6-[5-(2,2,2-trifluoro-ethyl)-[1,3,4]oxadiazol-2-yl]-pyrrolo[2,1-f][1,2,4]triazin-4-ylamino}-N-methoxy-benzamide, reference compound] | 1.0 | – | – | 1.4 | 1.8 | 7.60 | pIC50 (VEGFR2 [4]; [11]): 7.60; pIC50 (any gene target; [12]): 7.60
COC(=O)C1=C(c2ccccc2)c2cc(C)ccc2C1=O.COC(=O)C1=C(c2ccccc2)c2ccc(C)cc2C1=O [compound 44330102] | – | 5.19 | 5.19 | – | – | – | –
COC(=O)C1=C(c2ccccc2)c2ccncc2C1=O [compound 44330158] | – | 5.17 | 5.17 | – | – | – | –
NC(=O)C1=C(c2ccc(Cl)cc2)c2ccccc2C1=O [compound 44330203] | – | 5.27 | 5.27 | – | – | – | –
C=CC(=O)Nc1ccc(CN(C(=O)Nc2c(Cl)c(OC)cc(OC)c2Cl)c2cc(Nc3ccc(N4CCN(C)CC4)cc3)ncn2)cc1 [compound 73707531] | – | 9.00 | 9.00 | – | – | – | –
COc1cc(CCc2cc(Nc3ncnc4cc(N5CCN6CCCCC6C5)ccc34)n[nH]2)cc(OC)c1 (stereo not shown) [compound 127047969] | – | 9.70 | 9.70 | – | – | – | –
Cc1oc2c(c1C(=O)N1CC[C@H](N)C1)C(=O)c1c(c(O)c3ccccc3c1O)C2=O [compound 137631210] | – | 5.30 | 5.30 | – | – | – | –
COC(=O)c1ccc2c(C(=Nc3ccc(-n4c(C)ccc4CN4CCN(C)CC4)cc3)c3ccccc3)c(O)[nH]c2c1 [compound 141475848, Methyl 2-hydroxy-3-[N-[4-[2-methyl-5-[(4-methylpiperazin-1-yl)methyl]pyrrol-1-yl]phenyl]-C-phenylcarbonimidoyl]-1H-indole-6-carboxylate, reference compound] | 0.7 | – | – | 2.1 | 3.5 | 8.15 | pIC50 (VEGFR2 [4]; [8]): 8.19; pIC50 (any gene target; [10]): 8.00
COC(=O)Nc1ccc(-c2c(OC3CCN(C)CC3)nc3c(-c4ccc(OC)c(OC)c4)cnn3c2N)cc1 [compound 156010414, Methyl N-[4-[7-amino-3-(3,4-dimethoxyphenyl)-5-(1-methylpiperidin-4-yl)oxypyrazolo[1,5-a]pyrimidin-6-yl]phenyl]carbamate] | 4.3 | – | – | 3.0 | 1.7 | 8.22 | –
Cediranib maleate | – | – | – | – | – | – | Body fat (Echo MRI) vs vehicle (Zmpste24−/− mice): did not show an increase; Intrascapular brown fat mass (percent of body weight) vs vehicle (Zmpste24−/− mice): no alteration; Body weight vs vehicle (Zmpste24−/− mice): did not show an increase; Lean muscle vs vehicle (Zmpste24−/− mice): did not show an increase; pIC50 (VEGFR2 [4]; read-out: IC50 VEGFR2): 9.00
Chembl4213341 [compound 138393067] | 1.7 | – | – | 5.2 | 8.7 | 7.43 | –
Chembl4449189 [compound 155520650] | 2.4 | – | – | 1.8 | 1.2 | 6.96 | –
Chembl4573547 [compound 155563388] | 1.1 | – | – | 1.5 | 1.9 | 6.82 | –
